Molecular target: T1, human glucagon receptor (Homo sapiens, UniProt P47871)
T1 construct: expressed in transfected cells; cell membranes used
Assay: Glucagon Receptor Binding Assay
Conditions: for IC50: 125I-Glucagon binding to membranes of CHO cells expressing cloned human glucagon receptor, value for the more active diastereomer where both were prepared
Description: A stable CHO (Chinese hamster ovary) cell line expressing cloned human glucagon receptor was maintained as described (Chiechi, et. al. J Biol Chem 272, 7765-9 (1997); Cascieri, et. al. J Biol Chem 274, 8694-7 (1999)). To determine antagonistic binding affinity of compounds, 0.001-0.003 mg of cell membranes from these cells were pre-incubated with 0.100 mg WGA-coated PVT SPA beads (Amersham) for 20 minutes at room temperature in 25 μL of a buffer containing 50 mM Tris-HCl (pH 7.5), 5 mM MgCl2, 2 mM EDTA, 0.1% BSA and 3% glycerol in Costar 384 well plates with clear bottoms (#3706). Next, 25 μL of ^125I-Glucagon (New England Nuclear, Mass.) (1×10^−14 mol per well) and either 1 μL solutions of test compounds or 0.001 mM unlabeled glucagon or DMSO were added and mixed. After 4-12 hours incubation at room temperature, the radioactivity bound to the cell membranes was determined in a radioactive emission detection counter (Wallac-Microbeta). Data were analyzed using the Data Analyzer software program of Merck & Co., Inc. The IC50 values were calculated using non-linear regression analysis assuming single-site competition.

T1 sequence (P47871 26-477): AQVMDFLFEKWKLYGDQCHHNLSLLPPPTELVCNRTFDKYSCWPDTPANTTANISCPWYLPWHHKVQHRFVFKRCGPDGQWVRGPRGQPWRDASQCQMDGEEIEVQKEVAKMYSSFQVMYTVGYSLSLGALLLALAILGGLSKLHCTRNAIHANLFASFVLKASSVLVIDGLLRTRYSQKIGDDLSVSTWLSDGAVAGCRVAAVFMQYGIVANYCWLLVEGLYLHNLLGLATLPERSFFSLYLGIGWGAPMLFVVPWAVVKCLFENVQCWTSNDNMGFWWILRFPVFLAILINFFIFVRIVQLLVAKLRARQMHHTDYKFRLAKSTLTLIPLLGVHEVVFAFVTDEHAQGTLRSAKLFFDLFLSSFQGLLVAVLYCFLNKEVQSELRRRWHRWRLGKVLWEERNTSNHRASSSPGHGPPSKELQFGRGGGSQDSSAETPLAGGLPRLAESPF

Row | SMILES | IC50 | more potent glucagon receptor antagonist of the two diastereomers (comparison of major and minor racemic diastereomers)
1 | CCC[C@H](c1ccc(C(=O)NCCC(=O)O)cc1)[C@@H](Oc1ccc(C#N)c(Cl)c1)c1ccc(Cl)cc1 [Example 18] | 25 nM | 
2 | CCC[C@H](c1ccc(C(=O)NCCC(=O)O)cc1)[C@@H](Oc1ccc(C(F)(F)F)c(C#N)c1)c1ccc(Cl)cc1 [Example 15] | 5.9 nM | 
3 | CCC[C@H](c1ccc(C(=O)NCCC(=O)O)cc1)[C@@H](Oc1cc(C#N)cc(C(F)(F)F)c1)c1ccc(OC(F)(F)F)cc1 [Example 77, N-[4-((1R)-1-{(R)-(4-trifluoromethoxyphenyl)[3-cyano-5-(trifluoromethyl)phenoxy]methyl}butyl)benzoyl]-β-alanine] | 2.5 nM | 
4 | CCC[C@H](c1ccc(C(=O)NCCC(=O)O)cc1)[C@@H](OCc1ccc(-c2ccccc2)cc1)c1ccc(Cl)cc1 [Example 74, N-(4-{(1R)-1-[(R)-(biphenyl-4-ylmethoxy)(4-chlorophenyl)methyl]butyl}benzoyl)-β-alanine] | 20 nM | 
5 | CCC[C@H](c1ccc(C(=O)NCCC(=O)O)cc1)[C@H](Oc1ccc(C(F)(F)F)cc1)c1ccc(Cl)cc1 [Example 62] | 7.9 nM | 
6 | CCC[C@H](c1ccc(C(=O)NCCC(=O)O)cc1)[C@@H](Oc1ccc(-c2cccn2C)cc1)c1ccc(Cl)cc1 [Example 47] | 9.2 nM | 
7 | CCC[C@H](c1ccc(C(=O)NCCC(=O)O)cc1)[C@@H](Oc1ccnc2cc(Cl)ccc12)c1ccc(Cl)cc1 [Example 69, N-[4-((1R)-1-{(R)-(4-chlorophenyl)[(7-chloroquinolin-4-yl)oxy]methyl}butyl)benzoyl]-β-alanine] | 4.5 nM | 
8 | CCC[C@H](c1ccc(C(=O)NCCC(=O)O)cc1)[C@@H](Oc1cc(C(F)(F)F)nc2ccccc12)c1ccc(Cl)cc1 [Example 70, N-(4-{(1R)-1-[(R)-[(2-trifluoromethylquinolin-4-yl)oxy](4-chlorophenyl)methyl]butyl}benzoyl)-β-alanine] | 2.1 nM | 
9 | CCC[C@H](c1ccc(C(=O)NCCC(=O)O)cc1)[C@@H](Oc1ccc(Cl)c(Cl)c1)c1ccc(Cl)cc1 [Example 1, N-(4-{(1R)-1-[(R)-(4-chlorophenyl)(3,4-dichlorophenoxy)methyl]butyl}benzoyl)-β-alanine] | 16 nM | 
10 | CCC[C@H](c1ccc(C(=O)NCCC(=O)O)cc1)[C@@H](Oc1cc(Cl)c(Cl)c(C#N)c1)c1ccc(Cl)cc1 [Example 85] | 1.1 nM | 
11 | CCCC(c1ccc(C(=O)NCCC(=O)O)cc1)C(COc1ccc2cc(OC)ccc2c1)c1ccc(Cl)cc1 (stereo not drawn) [86 major diastereomer] |  | more potent glucagon receptor antagonist
12 | CCC[C@H](c1ccc(C(=O)NCCC(=O)O)cc1)[C@H](Oc1ccc(C(F)(F)F)cc1Cl)c1ccc(Cl)cc1 [Example 65] | 12 nM | 
13 | CCC[C@H](c1ccc(C(=O)NCCC(=O)O)cc1)[C@@H](Oc1cc(C#N)c(Cl)c(C(F)(F)F)c1)c1ccc(Cl)cc1 [Example 78, N-(4-{(1R)-1-[(R)-[4-chloro-3-cyano-5-(trifluoromethyl)phenoxy](4-chlorophenyl)methyl]butyl}benzoyl)-β-alanine] | 1.4 nM | 
14 | CCC[C@H](c1ccc(C(=O)NCCC(=O)O)cc1)[C@@H](Oc1cc(C(C)(C)C)cc(C(C)(C)C)c1)c1ccc(Cl)cc1 [Example 5] | 11 nM | 
15 | N#Cc1cc(Cl)cc(O[C@@H](c2ccc(Cl)cc2)[C@H](CCC(F)(F)F)c2ccc(C(=O)NCCC(=O)O)cc2)c1 [Example 75, N-(4-{(1R)-1-[(R)-(3-chloro-5-cyanophenoxy)(4-chlorophenyl)methyl]-4,4,4-trifluorobutyl}benzoyl)-β-alanine] | 18 nM | 
16 | CCC[C@H](c1ccc(C(=O)NCCC(=O)O)cc1)[C@@H](Oc1ccnc2cc(C)ccc12)c1ccc(Cl)cc1 [Example 68, N-[4-((1R)-1-{(R)-(4-chlorophenyl)[(7-methylquinolin-4-yl)oxy]methyl}butyl)benzoyl]-β-alanine] | 7.2 nM | 
17 | CCCC(c1ccc(C(=O)NCCC(=O)O)cc1)C(COc1ccc2cc(OC)ccc2c1)c1ccc(Cl)cc1 (racemic) [Example 86, N-[4-(1-{1-(4-chlorophenyl)-2-[(6-methoxy-2-naphthyl)oxy]ethyl}butyl)benzoyl]-β-alanine] | 16 nM | 
18 | CCC[C@H](c1ccc(C(=O)NCCC(=O)O)cc1)[C@@H](Oc1ccc(-c2ccc(C(F)(F)F)cc2)cc1C#N)c1ccc(Cl)cc1 [Example 59] | 0.3 nM | 
19 | CCC[C@H](c1ccc(C(=O)NCCC(=O)O)cc1)[C@@H](Oc1ccc(C#N)c2ccccc12)c1ccc(Cl)cc1 [Example 9] | 6.2 nM | 
20 | CCC[C@H](c1ccc(C(=O)NCCC(=O)O)cc1)[C@@H](Oc1cc(C#N)cc(-c2ccc(C(F)(F)F)cc2)c1)c1ccc(Cl)cc1 [Example 36] | 6.3 nM | 
21 | CCC[C@H](c1ccc(C(=O)NCCC(=O)O)cc1)[C@@H](OCc1ccc(OC(F)(F)F)cc1)c1ccc(Cl)cc1 [Example 72, N-{4-[(1R)-1-((R)-(4-chlorophenyl){[4-(trifluoromethoxy)benzyl]oxy}methyl)butyl]benzoyl}-β-alanine] | 32 nM | 
22 | CCC[C@H](c1ccc(C(=O)NCCC(=O)O)cc1)[C@@H](Oc1ccnc2c(C)cc(Cl)cc12)c1ccc(Cl)cc1 [Example 67, N-(4-{(1R)-1-[(R)-[(6-chloro-8-methylquinolin-4-yl)oxy](4-chlorophenyl)methyl]butyl}benzoyl)-β-alanine] | 6.6 nM | 
23 | CCC[C@H](c1ccc(C(=O)NCCC(=O)O)cc1)[C@@H](OCc1ccc2ccccc2c1)c1ccc(Cl)cc1 [Example 73, N-(4-{(1R)-1-[(R)-(4-chlorophenyl)(2-naphthylmethoxy)methyl]butyl}benzoyl)-β-alanine] | 38 nM | 
24 | CCC[C@H](c1ccc(C(=O)NCCC(=O)O)cc1)[C@@H](Oc1ccc(C(F)(F)F)cc1C#N)c1ccc(Cl)cc1 [Example 80] | 3.6 nM | 
25 | CCC[C@H](c1ccc(C(=O)NCCC(=O)O)cc1)[C@@H](Oc1ccc(C)c(C#N)c1)c1ccc(Cl)cc1 [Example 16] | 16 nM | 
26 | CCC[C@H](c1ccc(C(=O)NCCC(=O)O)cc1)[C@@H](Oc1ccnc2cc(C#N)ccc12)c1ccc(Cl)cc1 [Example 71, N-[4-((1R)-1-{(R)-(4-chlorophenyl)[(7-cyanoquinolin-4-yl)oxy]methyl}butyl)benzoyl]-β-alanine] | 5.5 nM | 
27 | CCC[C@H](c1ccc(C(=O)NCCC(=O)O)cc1)[C@@H](Oc1cc(C(F)(F)F)ccc1C#N)c1ccc(Cl)cc1 [Example 79] | 7.6 nM | 
28 | CCC[C@H](c1ccc(C(=O)NCCC(=O)O)cc1)[C@@H](Oc1cc(C#N)cc(C(F)(F)F)c1)c1ccc(Cl)cc1 [Example 76, N-[4-((1R)-1-{(R)-(4-chlorophenyl)[3-cyano-5-(trifluoromethyl)phenoxy]methyl}butyl)benzoyl]-β-alanine] | 4.8 nM | 

— US8809579B2, “Glucagon receptor antagonist compounds, compositions containing such compounds and methods of use” (Merck Sharp & Dohme Corp., priority 2009, dated 2014)
